# Experiments:
# Type in all cases: cell-based, human
# HGC27-R cells [1] = assay: Muse Ki67 cell proliferation assay
# Text: (§1) After the specified drug treatments, the cells were processed with the Muse Ki67 cell proliferation kit, which identified actively proliferating cells based on the expression of Ki67, a nuclear protein present in the active phases of the cell cycle (G1, S, G2, and M phases) and absent in the resting G0 phase. The Muse Ki67 Proliferation Assay was used with the Guava Muse Cell Analyzer according to the manufacturer’s instructions (Luminex Corporation, Austin, USA). Briefly, the cells were stained after fixation and permeabilization procedures, using Hu Ki67 or Hu IgG1 control fluorochrome-conjugated antibodies to distinguish Ki67(+) or Ki67(-) cells, respectively. The software provided the percentage of both Ki67(+) and Ki67(-) cells.
# NCI-N87 cells [2] = assay: Muse Ki67 cell proliferation assay; details: NCI-N87, single treatment (10 µM compound; 2 nM PTX); control 78.2%
# Text: as §1
# HGC27-S cells [3] = assay: Muse Ki67 cell proliferation assay; details: HGC27-S, 48 h
# Text: as §1
# HGC27-R cells [4] = assay: Muse caspase 3/7 activation assay; details: 48 h
# Text: (§2) After the specified drug treatments, the cells were processed using the Muse Annexin V/Dead Cell Assay Kit (Luminex Corporation, Austin, USA) for quantitative analysis of live, early/ late apoptotic, and dead cells on a Muse Cell Analyzer. Briefly, the assay utilized Annexin V to detect phosphatidylserine on the external membrane of apoptotic cells. The fluorescent signal emitted by dye-conjugated antibodies was detected by flow cytometry technology (Muse Cell Analyzer, Luminex Corporation, Austin, USA). 7-Amino-Actinomycin D (7-AAD) dead cell marker was also used. The cells were then analyzed according to the user’s guide. […] After 48 h treatments the cells were processed according to the user’s guide and analyzed with the Muse caspase-3/7 kit (Millipore).The assay provides the relative percentage of living, early/late apoptotic or dead cells.
# NCI-N87 cells [5] = assay: Muse caspase 3/7 activation assay
# Text: as §2
# HGC27-S cells [6] = assay: Muse caspase 3/7 activation assay; details: 48 h
# Text: as §2
# [7] = representative flow cytometry chart, 48 h, 10 µM CC48, PTX, single or combined as labelled
# [8] = representative flow cytometry chart, 10 µM CC48, PTX, single or combined as labelled
# [9] = single treatment, untreated 6.6%
smiles,measurement,setting,value
"CC(=O)O[C@H]1C(=O)[C@@]2(C)[C@H]([C@H](OC(=O)c3ccccc3)[C@]3(O)C[C@H](OC(=O)[C@H](O)[C@@H](NC(=O)c4ccccc4)c4ccccc4)C(C)=C1C3(C)C)[C@]1(OC(C)=O)CO[C@@H]1C[C@@H]2O [PTX, Paclitaxel]",Ki67(+) cells,HGC27-R cells [1]; [7],80.50%
same,Ki67(-) cells,HGC27-R cells [1]; [7],19.50%
same,percentage of Ki67+ cells,"HGC27-R cells [1]; single treatment, control 82.95%",80.5%
same,percentage of Ki67+ cells,NCI-N87 cells [2],68.1%
same,percentage of Ki67+ cells,"HGC27-S cells [3]; single treatment (10 µM CC48; 4 nM PTX), control 80.50%",58.1%
same,Ki67(+) cells,HGC27-S cells [3]; [8],58.10%
same,Ki67(-) cells,HGC27-S cells [3]; [8],41.90%
same,apoptotic cells (caspase 3/7 activation),"HGC27-R cells [4]; single treatment (4 nM PTX, 6 µM AM630, 10 µM others), untreated 18.9%",21.4%
same,dead cells,HGC27-R cells [4]; [9],7.70%
same,cells with activated caspase 3/7,"NCI-N87 cells [5]; NCI-N87, single treatment (2 nM PTX, 6 µM AM630, 10 µM others), untreated 6.35%",14.6%
same,dead cells,"NCI-N87 cells [5]; NCI-N87, single treatment, control 5.8% / 5.6%",8.1%
same,apoptotic cells (caspase 3/7 activation),"HGC27-S cells [6]; single treatment (4 nM PTX, 6 µM AM630, 10 µM others), untreated 13.05%",26.2%
same,dead cells,HGC27-S cells [6]; [9],23.7%
